Reference: patent US20260314598A1, “THE USE OF FLORPYRAUXIFEN-BENZYL AS A SOYBEAN HARVEST AID” (CORTEVA AGRISCIENCE LLC, priority 2022, published 2026)

Test system: soybean plants
Test: Field trial of soybean pre-harvest desiccation: visual defoliation after a single spray
Assay type: in vivo
Conditions: for Percentage of defoliation (raw data): single application at R7.2, 100 L/ha spray; for Percentage of defoliation (Abbot's formula): single application at R7.2, adjusted to untreated
Protocol: Field trials were carried out to test the soybean desiccation efficacy of florpyrauxifen-benzyl at 5, 7.5, 10, 15 and 20 g a.i./ha. Soybean plants were sprayed at the R7.2 soybean growth stage.
[…] Herbicides were diluted in water and a single application for each rate (backpack sprayer) was performed employing 100 L/ha of spray solution. The percentage of visual defoliation was assessed at 3, 7 and 10 days after spray application. The significance of treatment effects was evaluated with F-approximate test (α=0.05) and least square means from different treatments were compared with Tukey's test, after adjusting the % defoliation using Abbott's formula (Abbott, W. S., 1925. A method of computing the effectiveness of an insecticide. J. Econ. Entomol. 18:265-267).

[1] = 3 DAA, 370 g ai/ha, untreated 74.4
[2] = 10 DAA, 370 g ai/ha, untreated 89.8

## CP(=O)(O)CCC(N)C(=O)O (centres unmarked) [Ammonium glufosinate, ammonium-glufosinate]
[1]
  Percentage of defoliation (raw data): 84.9%
3 DAA, 370 g ai/ha
  Percentage of defoliation (Abbot's formula): 16.4%
7 DAA, 370 g ai/ha
  Percentage of defoliation (raw data): 93.9%
  Percentage of defoliation (Abbot's formula): 13.9%
[2]
  Percentage of defoliation (raw data): 98.1%
10 DAA, 370 g ai/ha
  Percentage of defoliation (Abbot's formula): 10.8%

## c1cc[n+]2c(c1)-c1cccc[n+]1CC2 [Diquat, diquat]
[1]
  Percentage of defoliation (raw data): 95.7%
3 DAA, 370 g ai/ha
  Percentage of defoliation (Abbot's formula): 31.7%
7 DAA, 370 g ai/ha
  Percentage of defoliation (raw data): 98.9%
  Percentage of defoliation (Abbot's formula): 20.5%
[2]
  Percentage of defoliation (raw data): 99.8%
10 DAA, 370 g ai/ha
  Percentage of defoliation (Abbot's formula): 12.9%

## COc1c(Cl)ccc(-c2nc(C(=O)OCc3ccccc3)c(Cl)c(N)c2F)c1F [Florpyrauxifen-benzyl, florpyrauxifen-benzyl]
3 DAA, 5 g ai/ha, untreated 74.4
  Percentage of defoliation (raw data): 78.8%
3 DAA, 5 g ai/ha
  Percentage of defoliation (Abbot's formula): 7.4%
3 DAA, 7.5 g ai/ha, untreated 74.4
  Percentage of defoliation (raw data): 80.8%
3 DAA, 7.5 g ai/ha
  Percentage of defoliation (Abbot's formula): 10.0%
3 DAA, 10 g ai/ha, untreated 74.4
  Percentage of defoliation (raw data): 81.3%
3 DAA, 10 g ai/ha
  Percentage of defoliation (Abbot's formula): 10.7%
3 DAA, 15 g ai/ha, untreated 74.4
  Percentage of defoliation (raw data): 82.4%
3 DAA, 15 g ai/ha
  Percentage of defoliation (Abbot's formula): 12.3%
3 DAA, 20 g ai/ha, untreated 74.4
  Percentage of defoliation (raw data): 84.3%
3 DAA, 20 g ai/ha
  Percentage of defoliation (Abbot's formula): 15.3%
7 DAA, 5 g ai/ha
  Percentage of defoliation (raw data): 89.3%
  Percentage of defoliation (Abbot's formula): 7.8%
7 DAA, 7.5 g ai/ha
  Percentage of defoliation (raw data): 90.8%
  Percentage of defoliation (Abbot's formula): 9.6%
7 DAA, 10 g ai/ha
  Percentage of defoliation (raw data): 91.4%
  Percentage of defoliation (Abbot's formula): 10.4%
7 DAA, 15 g ai/ha
  Percentage of defoliation (raw data): 93.0%
  Percentage of defoliation (Abbot's formula): 12.7%
7 DAA, 20 g ai/ha
  Percentage of defoliation (raw data): 94.5%
  Percentage of defoliation (Abbot's formula): 14.7%
7 DAA, rate not restated (15 and 20 g ai/ha in preceding sentence), Tukey's test
  percentage of defoliation compared to untreated plants, versus standards: statistically equivalent to both ammonium-glufosinate and diquat
10 DAA, 5 g ai/ha, untreated 89.8
  Percentage of defoliation (raw data): 97.1%
10 DAA, 5 g ai/ha
  Percentage of defoliation (Abbot's formula): 9.5%
10 DAA, 7.5 g ai/ha, untreated 89.8
  Percentage of defoliation (raw data): 97.9%
10 DAA, 7.5 g ai/ha
  Percentage of defoliation (Abbot's formula): 10.4%
10 DAA, 10 g ai/ha, untreated 89.8
  Percentage of defoliation (raw data): 97.9%
10 DAA, 10 g ai/ha
  Percentage of defoliation (Abbot's formula): 10.5%
10 DAA, 15 g ai/ha, untreated 89.8
  Percentage of defoliation (raw data): 98.6%
10 DAA, 15 g ai/ha
  Percentage of defoliation (Abbot's formula): 11.3%
10 DAA, 20 g ai/ha, untreated 89.8
  Percentage of defoliation (raw data): 99.1%
10 DAA, 20 g ai/ha
  Percentage of defoliation (Abbot's formula): 11.9%
15 and 20 g ai/ha, 3 DAA, F-approximate test (α=0.05), Tukey's test
  percentage of defoliation compared to untreated plants, versus standard: statistically equivalent to ammonium-glufosinate
